The nature of this series: Compound was tested for its cytotoxic activity against BACI.2F5 mouse macrophages. The following applies: read-out: LD50 (the source's name).

Bounds are passed on as bounds.

In the case of `CC(=O)N[C@@H]1[C@H](O[C@H]2CC[C@]3(C)[C@H]4CC=C5[C@@H]6CC(C)(C)[C@@H](OC(=O)/C=C/c7ccccc7)C[C@]6(C(=O)O[C@@H]6O[C@@H](CO)[C@@H](O)[C@H](O)[C@@H]6O[C@@H]6O[C@@H](C)[C@H](O[C@@H]7O[C@@H](CO)[C@H](O)[C@H]7O)[C@H](O[C@@H]7O[C@@H](CO)[C@@H](O)[C@H](O)[C@@H]7O)[C@H]6O)CC[C@@]5(C)[C@]4(C)CC[C@H]3C2(C)C)O[C@@H](CO[C@@H]2OC[C@H](O)[C@@H](O)[C@@H]2O[C@@H]2OC[C@@H](O)[C@H](O)[C@@H]2O)[C@@H](O)[C@@H]1O`, the CC50 is not above 3000 nM.

These data come from ChEMBL document CHEMBL1136580, “Enterolosaponins A and B, novel triterpene bisdesmosides from Enterolobium contortisiliquum, and evaluation for their macrophage-oriented cytotoxic activity” (Bioorg Med Chem Lett, 2003).
